Laboratory results reported in article PMC12292445, “Physiologically Based Pharmacokinetic Modeling for Predicting Drug Levels After Bariatric Surgery: Vardenafil Exposure Before vs. After Gastric Sleeve/Bypass” (Biomolecules, 2025).
Converted amounts (≈) assume the structure as drawn. Where two headings read alike, the source gives them in different places. Values belong to the molecule of their own block, whether it stands above or below them.

Assays:
[1] = stated in discussion, no source given; cited from earlier work
[2] = In vitro dissolution of whole tablets under pre- vs post-bariatric gastric conditions; assay type: physicochemical; settings: Levitra 20 mg tablet
Description: The dissolution of whole tablet vardenafil (20 mg) products was studied in three different conditions, as previously described (n = 4 for each condition): (1) pH 1 maleic acid, 250 mL medium (pre-surgery conditions), with the USP dissolution apparatus II (Premiere 5100, Distek®, North Brunswick, NJ, USA), at 100 rpm paddle rotation; […] This rotation velocity was calculated, addressing the following parameters: the paddle size (D), volume of fluid (V), and agitation strength (ε), as follows: εlong/εshort=RPMlong3 × Dlong5/Vlong/RPMshort3 × Dshort5/Vshort These adjusted experimental conditions mimic pre- vs. post-bariatric intragastric dissolution conditions, including the pH, temperature, fluid volume, and contractility force, and were thus preferred over standard, compendial dissolution methods. Next, 300 µL samples were drawn for 90 min at 10 different time points and then filtered prior to ultra-performance liquid chromatography (UPLC) analysis (Table 1).

clinical = assay: clinical
Description: Values were either obtained from the literature, in silico predictions (ADMET Predictor® module, version 10.4.0.0; Simulations Plus Inc., Lancaster, CA, USA) based on the drug’s molecular structure, or experimentally determined. pH-dependent solubility data were input as an .spd file and used to fit the solubility factors in the solubility model. Drug dissolution along the GIT was calculated using the software default Johnson equation [58] based on the drug’s solubility and particle size. With the lack of data on commercial product drug particle size, 100 µm was chosen as an approximate value for all simulations. Regarding poor aqueous solubility, bile salts’ effect on drug solubility/dissolution was also accounted for. The drug precipitation time was set as the default 900 s. […] The distribution and elimination PK parameters of vardenafil were based on available data of in vivo plasma concentration over time following IV and PO drug administration, using the software-integrated PKPlus^TM module and optimized further while keeping the final values within the reported literature range (Table 3).

physchem [3] = assay type: physicochemical
Description: The equilibrium solubility of vardenafil was determined by the previously described shake-flask method. Four different medium pHs were used: pH 1 and pH 3 (0.2 M maleic acid), pH 5 (0.2 M acetic acid), and pH 7 (0.2 M dihydrogen phosphate). Quadruplet (n = 4) samples of each buffer pH were prepared with drug powder added in excess, until saturation, to vials with 500 µL medium solution. Vial incubation was at 37 °C, with 200 rpm sample shaking for 24 h (Orbital Shaker Incubator, MRC Laboratory Instruments, Holon, Israel). Sample contents were then transferred to Eppendorf tubes for a 10 min centrifugation (Centrifuge 5430 R, Eppendorf®, Hamburg, Germany) at 20,817 rcf and 37 °C. Obtained supernatants were diluted as needed and immediately analyzed by UPLC-PDA (Table 1).

physchem [4] = assay type: physicochemical; settings: human; for solubility: thermodynamic from solid
Description: The equilibrium solubility of vardenafil in gastric content was also tested using the shake-flask method mentioned above, which followed a procedure that had been recently described. In short, excess drug was added to glass vials containing samples of gastric content aspirated from three patients (1 SG, 1 RYGB, and 1 OAGB) during bariatric procedure time. Aspiration was performed through the nasogastric tube at three time points: before, immediately after , and 24 h post-surgery. Study protocol approval was given by the Ben-Gurion University School of Medicine institutional review board (institutional board request number 0248-18-SOR), and informed consent was obtained from all the participants prior to surgery. Following gastric content collection, pH was immediately measured and recorded. […] As vardenafil hydrochloride powder modified the pH of the post-bariatric gastric fluid, pH was adjusted with a small volume pH 7 buffer, as necessary.

[5] = design: method as in earlier work; settings: healthy fasted humans, digitized mean profile, cited from earlier work
[6] = estimated with PKPlus from in vivo IV and oral data, then optimized

SMILES: CCCc1nn(C)c2c(=O)[nH]c(-c3cc(S(=O)(=O)N4CCN(C)CC4)ccc3OCC)nc12 [sildenafil]
pKa [1]: ~ 7

Dissolution (dose dissolved) ([2]; post-OAGB conditions, pH 7, 50 mL): 4% | Dissolution (dose dissolved) ([2]; post-SG conditions, pH 5, 50 mL): 100% | Dissolution (dose dissolved) ([2]; pre-surgery conditions, pH 1, 250 mL): 100% | Distribution constant k12 (clinical; [6]): 3.090 h⁻¹ | Distribution constant k13 (clinical; [6]): 0.448 h⁻¹ | Distribution constant k21 (clinical; [6]): 2.100 h⁻¹ | Distribution constant k31 (clinical; [6]): 0.250 h⁻¹ | Vd (clinical; human): 0.8 L/kg | clearance (clinical; human): 15.4 mL/min/kg | solubility at 24 h (physchem [3]; 37 °C, pH 3, aqueous buffer, thermodynamic from solid): > 30 mg/mL | solubility at 24 h (physchem [3]; 37 °C, pH 5, aqueous buffer, thermodynamic from solid): 27.4 mg/mL (≈ 56.1 mM) | solubility at 24 h (physchem [3]; 37 °C, pH 7, aqueous buffer, thermodynamic from solid): 0.05 mg/mL (≈ 0.102 mM) | Decrease in saturation solubility (physchem [3]; 24 h): over 600 fold | Solubility at 37 °C (physchem [3]; 24 h, pH 1): 30 mg/mL (≈ 61.4 mM) | Solubility at 37 °C (physchem [3]; 24 h, pH 3): 30 mg/mL (≈ 61.4 mM) | solubility at 24 h (physchem [3]; pH 1): > 30 mg/mL | Lower ex vivo solubility after vs. before the surgery (physchem [4]): > 500 fold | solubility (physchem [4]; pH 2, plasma or biological fluid): > 30000 µg/mL | solubility (physchem [4]; pH 7, plasma or biological fluid): 60 µg/mL (≈ 0.123 mM)
SMILES: CCCc1nc(C)c2c(=O)[nH]c(-c3cc(S(=O)(=O)N4CCN(CC)CC4)ccc3OCC)nn12 [vardenafil]
pKa [1]: ~ 7 | AUC0−inf, observed ([5]; 10 mg single oral dose): 27.29 ng·h/mL | Cmax, observed ([5]; 10 mg single oral dose): 7.20 ng/mL | Tmax, observed ([5]; 10 mg single oral dose): 57 min | AUC0−inf, observed ([5]; 20 mg single oral dose): 41.86 ng·h/mL | Cmax, observed ([5]; 20 mg single oral dose): 16.30 ng/mL | Tmax, observed ([5]; 20 mg single oral dose): 46.8 min
